Measured values as given in patent US10265327B2, “V1A antagonists to treat phase shift sleep disorders” (Hoffmann-La Roche Inc., priority 2013, dated 2019).
Entries after “also recorded” stand apart in the source; their conditions may differ.

System: C57BL/6J mice
Experiment: Jet-lag test: behavioural re-entrainment to 6 h phase advance of the LD cycle
Assay type: in vivo, mouse
Details: for days to total behavioural re-entrainment after the 6 h phase shift: mean ± SEM, n=5
Description: In all studies described below, male young-adult C57BL/6J mice (4 weeks old at the beginning of experiments) were used. Animals were exposed to a light-dark cycle (LD) 12:12 (lights on from 8 h to 20 h geographical time; light intensity at 200 lux; during dark period dim red light of 5 lux) in individual cages with food and water ad libitum and temperature (22±1° C.) and humidity (55%±5%) controlled. LD cycle was represented as zeitgeber times (ZT) where ZT0 represents the lights on and ZT12 lights off. When animals were exposed to constant darkness conditions (DD), circadian times (CT) were used as time point references, where CT12 corresponds to activity onset.
To evaluate the effects of the V1a antagonist trans-8-chloro-5-methyl-1-(4-pyridin-2-yloxycyclohexyl)-4,6-dihydro-[1,2,4]triazolo[4,3-a][1,4]benzodiazepine on light synchronization of behavioural circadian rhythms, a jet-lag protocol of 6 h phase shift was used. After being under a LD cycle 12 h/12 h (for at least 10 days), mice were exposed to a 6 -h phase advance of the light-dark cycle (first “jet-lag” test, advance shift) and to the administration of vehicle or 30 mg/kg of the V1a antagonist trans-8-chloro-5-methyl-1-(4-pyridin-2-yloxycyclohexyl)-4,6-dihydro-[1,2,4]triazolo[4,3-a][1,4]benzodiazepine. On the day of the shift, the time of lights off was phase-advanced by 6 h. Here we used three groups of animals: a sham group (Group 1, n=3), animals in which the cannula was introduced in the oral cavity without any solution delivery; a vehicle group (Group 2, n=4), which received vehicle, and a 30 mg/kg trans-8-chloro-5-methyl-1-(4-pyridin-2-yloxycyclohexyl)-4,6-dihydro-[1,2,4]triazolo[4,3-a][1,4]benzodiazepine group (Group 3, n=5). All manipulations were at ZT6 (6 h after lights on) on the last LD cycle before the 6 h phase advance.
In a second experiment, using naive animals, a second jet-lag test was evaluated. Thus, using a new group of male mice, the effects of 30 mg/kg trans-8-chloro-5-methyl-1-(4-pyridin-2-yloxycyclohexyl)-4,6-dihydro-[1,2,4]triazolo[4,3-a][1,4]benzodiazepine on the re-synchronization to a 6 h phase advance of the LD cycle were tested. Animals under a LD cycle 12 h/12 h (for at least 10 days) were exposed to a phase advance of 6 h of the LD cycle and to the administration of vehicle or 30 mg/kg of the V1a antagonist trans-8-chloro-5-methyl-1-(4-pyridin-2-yloxycyclohexyl)-4,6-dihydro-[1,2,4]triazolo[4,3 -a][1,4]benzodiazepine at ZT/CT6. Similarly to the previous experiment, three groups of animals were used: a sham group (Group 1, n=3), animals in which the cannula was introduced in the oral cavity without any solution delivery; a vehicle group (Group 2, n=4) which received vehicle, and a 30 mg/kg trans-8-chloro-5-methyl-1 -(4-pyridin-2-yloxycyclohexyl)-4,6-dihydro-[1,2,4]triazolo[4,3 -a][1,4]benzodiazepine group (Group 3, n=5).
The locomotor activity rhythms were measured using infra-red detectors on the top of the cages and/or running wheels.
Re-entrainment (jet-lag tests): For 6 h phase-shift (jet-lag protocol) the number of days after the shift for total re-entrainment was quantified, considering both the onset and offset of activity. The onsets and offsets of activity were identified automatically using ClockLab software. Thus, full resynchronization to a new LD cycle, after 6-hour phase shifts of the time of lights off, was considered when activity onset took place at the new time of lights off ±30 minutes. The number of days (transitory cycles) required to re-synchronize was calculated for each mouse. The speed of re-entrainment was evaluated calculating the onset of activity and the advance of it, in hours, daily. To evaluate the effects of manipulations on locomotion, the locomotor activity changes from 0 to 6 h after each treatment were quantified in 30 min intervals (see activity profiles determination).
Values in all experiments are means ±SEM. […]

## CN1Cc2cc(Cl)ccc2-n2c(nnc2[C@H]2CC[C@H](Oc3ccccn3)CC2)C1 [Example 1, trans-8-chloro-5-methyl-1-(4-pyridin-2-yloxycyclohexyl)-4,6-dihydro-[1,2,4]triazolo[4,3-a][1,4]benzodiazepine]
Both jet-lag experiments, 30 mg/kg
  re-entrainment of the circadian clock to a new LD cycle (overall conclusion): accelerates the re-entrainment
jet-lag test 1, 30 mg/kg at ZT6, 0 to 6 h after treatment
  locomotor activity induced by manipulations: not significantly different between groups
jet-lag test 1, 30 mg/kg at ZT6, first 5 days after the shift, 30 mg/kg
  daily adjustment of onset of activity to the LD cycle (speed of re-entrainment): much more rapid daily adjustment; also recorded: significantly faster re-entrainment
jet-lag test 1, 30 mg/kg oral at ZT6
  days to total behavioural re-entrainment after the 6 h phase shift: 3.2 ± 0.33 days
Second jet-lag test, naive mice, 30 mg/kg at ZT/CT6
  increase in locomotion induced by manipulations: not significantly different between groups
Second jet-lag test, naive mice, 30 mg/kg at ZT/CT6, first 4 days after the shift, 30 mg/kg
  daily adjustment of onset of activity to the LD cycle (speed of re-entrainment): much more rapid daily adjustment; also recorded: significantly faster re-entrainment
Second jet-lag test, naive mice, 30 mg/kg oral at ZT/CT6
  days to total behavioural re-entrainment after the 6 h phase shift: 3.4 ± 0.24 days
